Results from ChEMBL document CHEMBL1201862, “PubChem BioAssay data set” (2004).
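In this assay, cells in 96-well plates receive the compound at five concentrations for 48 hours. Endpoints are linearly interpolated between the surrounding concentrations. At the GI50, growth is halved.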 Activity calls are given as the source filed them. No stated cut-off is given here; in the data, active = GI50 up to about 1.1 µM and inactive = higher.

How the values were obtained:
Assay in all cases: NCI anticancer screen, dose series, 48 h
K562 = system: K562
UO-31 = system: UO-31
HOP-92 = system: HOP-92
Malme-3M = system: Malme-3M
SNB-75 = system: SNB-75
BT-549 = system: BT-549
OVCAR-4 = system: OVCAR-4
786-0 = system: 786-0
OVCAR-5 = system: OVCAR-5
NCI-H460 = system: NCI-H460
SK-MEL-28 = system: SK-MEL-28
LOX IMVI = system: LOX IMVI
U-251 = system: U-251
A498 = system: A498
Hs-578T = system: Hs-578T
HT-29 = system: HT-29
NCI-H226 = system: NCI-H226
OVCAR-8 = system: OVCAR-8
SF-295 = system: SF-295

Measured: GI50

COC(=O)C1CCC(=O)N1C(c1ccc2c(c1)OCO2)c1ccc2c(c1)OCO2 (stereo not given)
inactive: K562 > 100 µM | UO-31 51.9 µM | HOP-92 > 100 µM | Malme-3M > 100 µM | SNB-75 > 100 µM | BT-549 > 100 µM | OVCAR-4 > 100 µM | 786-0 > 100 µM | OVCAR-5 > 100 µM | NCI-H460 > 100 µM | SK-MEL-28 > 100 µM | LOX IMVI > 100 µM | U-251 > 100 µM | A498 > 100 µM | Hs-578T > 100 µM | HT-29 > 100 µM | NCI-H226 > 100 µM | OVCAR-8 > 100 µM | SF-295 > 100 µM

CC(=O)N(C)c1cc(NCc2ccccc2)ccc1OCc1ccccc1
inactive: K562 22.1 µM | UO-31 14.8 µM | HOP-92 12.7 µM | Malme-3M 16.1 µM | SNB-75 22.2 µM | BT-549 20.6 µM | OVCAR-4 18.7 µM | 786-0 27.9 µM | OVCAR-5 19.3 µM | NCI-H460 17.9 µM | SK-MEL-28 18.9 µM | LOX IMVI 20 µM | U-251 17.4 µM | A498 16.3 µM | Hs-578T 31.4 µM | HT-29 20.6 µM | NCI-H226 18.4 µM | OVCAR-8 17.3 µM | SF-295 15.4 µM

CCc1c(CN)c(CC)c(CNC2=NCCN2)c(CC)c1CNC1=NCCN1
inactive: K562 > 100 µM | UO-31 > 100 µM | HOP-92 > 100 µM | Malme-3M > 100 µM | SNB-75 > 100 µM | BT-549 > 100 µM | OVCAR-4 > 100 µM | 786-0 > 100 µM | OVCAR-5 > 100 µM | NCI-H460 > 100 µM | SK-MEL-28 > 100 µM | U-251 > 100 µM | A498 > 100 µM | Hs-578T > 100 µM | HT-29 > 100 µM | NCI-H226 > 100 µM | OVCAR-8 > 100 µM | SF-295 > 100 µM

O=c1c(-c2ccccc2)c(SCCN2CCCC2)n(-c2ccccc2)c(=S)n1-c1ccccc1
inactive: K562 > 100 µM | HOP-92 71.9 µM | Malme-3M > 100 µM | SNB-75 34.4 µM | BT-549 > 100 µM | OVCAR-4 > 100 µM | 786-0 > 100 µM | OVCAR-5 > 100 µM | NCI-H460 > 100 µM | SK-MEL-28 > 100 µM | LOX IMVI > 100 µM | U-251 > 100 µM | A498 > 100 µM | Hs-578T > 100 µM | HT-29 > 100 µM | NCI-H226 83.2 µM | OVCAR-8 > 100 µM | SF-295 > 100 µM

Nc1c(F)c(F)c2c(c1F)N(CCCCCl)c1ccccc1S2
inactive: K562 > 100 µM | UO-31 > 100 µM | HOP-92 > 100 µM | Malme-3M > 100 µM | SNB-75 74.6 µM | BT-549 > 100 µM | OVCAR-4 > 100 µM | 786-0 > 100 µM | OVCAR-5 > 100 µM | NCI-H460 > 100 µM | SK-MEL-28 > 100 µM | LOX IMVI > 100 µM | U-251 > 100 µM | A498 > 100 µM | Hs-578T > 100 µM | HT-29 > 100 µM | NCI-H226 > 100 µM | SF-295 > 100 µM

O=C1C(Cl)C2(CC(/C=C/c3ccccc3O)=NN2c2cccc(S(=O)(=O)O)c2)N1c1nc2ccccc2s1 (stereo not given)
inactive: K562 20.2 µM | UO-31 13.1 µM | HOP-92 19.7 µM | Malme-3M 13.8 µM | SNB-75 38.8 µM | BT-549 18.1 µM | OVCAR-4 13.4 µM | 786-0 15.6 µM | OVCAR-5 22.3 µM | NCI-H460 15.1 µM | SK-MEL-28 24.2 µM | LOX IMVI 9.62 µM | U-251 16.7 µM | A498 20.9 µM | Hs-578T 23.9 µM | HT-29 18.6 µM | NCI-H226 18.9 µM | OVCAR-8 24.3 µM

CCOC(=O)C(NC(=O)CC)(Nc1ccc(F)c(Cl)c1)C(F)(F)F (stereo not given)
inactive: K562 > 29.2 µM | UO-31 > 100 µM | HOP-92 > 100 µM | Malme-3M > 100 µM | SNB-75 > 100 µM | BT-549 > 100 µM | OVCAR-4 > 100 µM | 786-0 > 100 µM | OVCAR-5 > 100 µM | NCI-H460 > 100 µM | SK-MEL-28 > 100 µM | U-251 > 100 µM | A498 > 100 µM | Hs-578T > 100 µM | HT-29 > 100 µM | NCI-H226 > 100 µM | OVCAR-8 > 100 µM | SF-295 > 76.4 µM

NC(=O)Cc1ncn(-c2ccccc2)n1
inactive: K562 > 100 µM | UO-31 > 100 µM | HOP-92 > 100 µM | Malme-3M > 100 µM | SNB-75 > 100 µM | BT-549 > 100 µM | 786-0 > 100 µM | OVCAR-5 > 100 µM | LOX IMVI > 100 µM | A498 > 100 µM | Hs-578T > 100 µM | HT-29 > 100 µM | NCI-H226 > 100 µM | OVCAR-8 > 100 µM | SF-295 > 100 µM

COc1c(CC=C(C)C)c(O)c(C(CC(C)C)c2c(O)c(C(C)=O)c(O)c3c2OC(C(C)(C)O)C3)c(O)c1C(C)=O (stereo not given) [ACROFOLIONE A]
inactive: K562 2.13 µM | UO-31 4.16 µM | HOP-92 1.85 µM | Malme-3M 3.81 µM | BT-549 3.27 µM | OVCAR-4 5.68 µM | 786-0 4.89 µM | OVCAR-5 5.38 µM | NCI-H460 4.13 µM | SK-MEL-28 9.18 µM | LOX IMVI 4.38 µM | A498 3.83 µM | Hs-578T 7.74 µM | HT-29 4.71 µM | NCI-H226 5.69 µM | OVCAR-8 4.12 µM

N#Cc1c(N2CCOCC2)[nH]c(=O)c(C(c2c(Cl)cccc2Cl)c2c(O)c(C#N)c(N3CCOCC3)[nH]c2=O)c1O
inactive: K562 11.2 µM | UO-31 18.2 µM | HOP-92 18 µM | Malme-3M 12.9 µM | BT-549 17.6 µM | OVCAR-4 17.7 µM | 786-0 32 µM | OVCAR-5 14 µM | NCI-H460 > 100 µM | SK-MEL-28 17.9 µM | LOX IMVI 13 µM | U-251 16.7 µM | A498 34.5 µM | Hs-578T 19.5 µM | HT-29 15.4 µM | NCI-H226 23 µM | OVCAR-8 18.6 µM | SF-295 30.5 µM

CCC(C#N)(c1ccccc1)N(CCc1ccccc1)C(=O)c1ccccc1 (stereo not given)
inactive: K562 > 100 µM | UO-31 64.3 µM | HOP-92 12.6 µM | Malme-3M > 100 µM | SNB-75 29.5 µM | BT-549 70.8 µM | OVCAR-4 10.8 µM | 786-0 13.3 µM | OVCAR-5 > 100 µM | SK-MEL-28 42.6 µM | LOX IMVI > 100 µM | U-251 30.3 µM | A498 24.2 µM | Hs-578T 18.2 µM | HT-29 > 100 µM | NCI-H226 18.5 µM | OVCAR-8 20 µM | SF-295 29.6 µM
